Earlier results as cited in patent publication US20110081780A1, “AQUEOUS DISPERSION FOR CHEMICAL MECHANICAL POLISHING AND CHEMICAL MECHANICAL POLISHING METHOD” (JSR CORPORATION, priority 2008, published 2011).

Settings: commercially available products
In the case of “2,4,7,9-tetramethyl-5-decyne-4,7-diol-dipolyoxyethylene ethers [Surfynol 465]”, the HLB value is given as 13. In the case of “2,4,7,9-tetramethyl-5-decyne-4,7-diol-dipolyoxyethylene ethers [Surfynol 485]”, the HLB value is given as 17.

Settings: 25° C.; second carboxyl group if two carboxyl groups, third if three or more
In the case of `CC(C(=O)O)C(C)C(=O)O` (stereo not drawn) [2,3-Dimethylsuccinic acid], the pKa is given as 6.00. For `CC(C)(C(=O)O)C(C)(C)C(=O)O` [Tetramethylsuccinic acid], the pKa is given as 7.41. In the case of `O=C(O)[C@H]1CCCCC[C@H]1C(=O)O` [1,2-Cycloheptanedicarboxylic acid (cis)], the pKa is listed as 7.60. In the case of `CC(CC(=O)O)(CC(=O)O)c1ccccc1` [3-Methyl-3-phenylglutaric acid], the pKa is given as 6.17. In the case of `CCC(CC)(CC(=O)O)CC(=O)O` [3,3-Diethylglutaric acid], the pKa is listed as 7.42. In the case of `O=C(O)c1ccc(O)cc1` [p-Hydroxybenzoic acid], the pKa is given as 9.46. For `CC(C)C(C)(CC(=O)O)CC(=O)O` [3-Isopropyl-3-methylglutaric acid], the pKa is listed as 6.92. For `CC(C)C(C(=O)O)(C(=O)O)C(C)C` [2,2-Diisopropylmalonic acid], the pKa is given as 8.85. In the case of `O=C(O)c1cccc(O)c1` [m-Hydroxvbenzoic acid], the pKa is listed as 9.96. In the case of `CCC(C(=O)O)C(CC)C(=O)O` (stereo not drawn) [2,3-Diethylsuccinic acid], the pKa is given as 6.46. For `CCCC(CCC)(CC(=O)O)CC(=O)O` [3,3-Dipropylglutaric acid], the pKa is listed as 7.48. In the case of `CC1CCCCC1(CC(=O)O)CC(=O)O` (stereo not drawn) [2-Methylcyclohexyl-1,1-diacetic acid], the pKa is given as 6.89. For `CC(C)(CC(=O)O)CC(=O)O` [3,3-Dimethylglutaric acid], the pKa is listed as 6.45. For `O=C(O)CC1(CC(=O)O)CCCCC1` [Cyclohexyl-1,1-diacetic acid], the pKa is given as 7.08. In the case of `CCC(C(=O)O)C(C)C(=O)O` (stereo not drawn) [2-Ethyl-3-methylsuccinic acid], the pKa is given as 6.10. In the case of `CC(C)C(CC(=O)O)(CC(=O)O)C(C)C` [3,3-Diisopropylglutaric acid], the pKa is listed as 7.68. In the case of `O=C(O)[C@@H]1CCCCCC[C@H]1C(=O)O` (relative stereo) [1,2-Cyclooctanedicarboxylic acid (trans)], the pKa is given as 6.24. In the case of `CCC(C)(C(=O)O)C(=O)O` [2-Ethyl-2-methylmalonic acid], the pKa is given as 6.55. In the case of `CCC(C(=O)O)C(=O)O` [2-Ethylmalonic acid], the pKa is listed as 5.81. For `CC(C)C(C(=O)O)C(=O)O` [2-Isopropylmalonic acid], the pKa is listed as 5.88. In the case of `CC(C)(C)C(C(=O)O)C(C(=O)O)C(C)(C)C` (stereo not drawn) [2,3-Di-t-butylsuccinic acid], the pKa is given as 10.26. For `CCC(CC)C(CC)(CCC(=O)O)C(=O)O` (stereo not drawn) [2-Ethyl-2-(1-ethylpropyl)glutaric acid], the pKa is listed as 7.31. For `O=C(O)[C@@H]1CCCCC[C@H]1C(=O)O` (relative stereo) [1,2-Cycloheptanedicarboxylic acid (trans)], the pKa is given as 6.18. For `O=C(O)CC1(CC(=O)O)CCCC1` [Cyclopentyl-1,1-diacetic acid], the pKa is listed as 6.77. For `O=C(O)CC(C(=O)O)c1ccccc1` (stereo not drawn) [Phenylsuccinic acid], the pKa is given as 5.55. For `CC(C(=O)O)C(=O)O` [2-Methylmalonic acid], the pKa is listed as 5.76. For `O=C(O)[C@H]1CCCCCC[C@H]1C(=O)O` [1,2-Cyclooctanedicarboxylic acid (cis)], the pKa is listed as 7.34. For `CCC(CC)(C(=O)O)C(=O)O` [2,2-Diethylmalonic acid], the pKa is listed as 7.42. For `CCC(C)(CC(=O)O)CC(=O)O` [3-Methyl-3-ethylglutaric acid], the pKa is listed as 6.70. For `CC(C)(C)C(C)(CC(=O)O)CC(=O)O` [3-t-Butyl-3-methylglutaric acid], the pKa is given as 7.49. For `CCC(CC(=O)O)(CC(=O)O)c1ccccc1` [3-Ethyl-3-phenylglutaric acid], the pKa is listed as 6.95.
